Holding throughout (format): in vivo, Mus Musculus
Data set [1] is described as follows: Body weight of treated diet-induced obese mice. On the procedure: Male C57Bl/6J mice were obtained at 8 weeks of age from Animal Resources Centre (Canning Vale, Western Australia). Animals were individually housed and allowed free movement and ad libitum access to water and food. Animals were maintained on a 12 hour light (6 am-6 pm) and 12 hour dark (6 pm-6 am) cycle. Animals were monitored daily. Body weight, food and water intake were recorded 3 times a week.

Data set [2] relates to Diet-Induced Obese (DIO) Mice. The data set can be described thus: Fasting plasma glucose in diet-induced obese mice. The following applies: for FPG Day −1: before dosing.
Data set [3] relates to Diet-Induced Obese (DIO) Mice. Description: ipGTT (glucose tolerance) in diet-induced obese mice. The following applies: for AUC Day −1: before dosing.
The test system of data set [4] is db/db mice. The data set can be described thus: Fasting plasma glucose in db/db mice. The conditions noted are these: for FPG Day 0: Metformin 300 mg/kg group. From the text:
The db/db mouse model comprises mice with a homozygous mutation of the leptin receptor gene that ablates leptin signalling in the hypothalamus and elsewhere. The db/db mouse model is commonly used to study the genetic and physiological mechanisms of obesity and type II diabetes. […] Leptin acts through the leptin receptor to control whole-body energy homeostasis by regulating both appetite and energy expenditure. Loss of function of the leptin receptor gene results in hyperphagia and slower metabolism, leading to obesity and eventually diabetes. […] Dosing solutions of the test articles: Methazolamide, Metformin and Methazolamide/Metformin were prepared fresh on each dosing day and stored at room temperature, protected from light. The compound was formulated in sterile vehicle: […] Stock solutions were prepared by dissolving the compound in NMP:PEG300 (1:2, v/v). Saline was added to the stock solution prior to administration of the compound. The solutions were mixed by vortexing immediately prior to dosing to ensure a homogeneous suspension of the compound. Male C57Bl/6J db/db mice were obtained at 10 weeks of age from Animal Resources Centre ([…], Western Australia). Animals were individually housed and allowed free movement and ad libitum access to water and food. Animals were maintained on a 12 hour light (6 am-6 pm) and 12 hour dark (6 pm-6 am) cycle. Animals were monitored daily. Body weight, food and water intake were recorded 3 times a week. Mice were fed a standard chow diet, and used after a two week acclimatisation period. […] The fasting plasma glucose levels of the animals was tested prior to commencement of the study and then every 3-4 days during dosing. The animals were fasted for a period of 4 hours after dosing and prior to the taking of a blood sample via a tail nick. Blood glucose levels were monitored using commercially available glucometers (Accuchek Advantage, Roche) based on the electric current generated when a blood drop is spotted on a test strip resulting in conversion of the glucose present in the sample to gluconolactone by the glucose dehydrogenase enzyme, in the presence of the coenzyme (PQQ).

Where [5] appears, read: Acetazolamide 10 mg/kg b.i.d. oral gavage.
[6] abbreviates: Acetazolamide 20 mg/kg b.i.d. oral gavage.
The mark [7] stands for this setting: Acetazolamide 50 mg/kg b.i.d. oral gavage.
The mark [8] stands for this setting: Chlorthalidone 10 mg/kg oral gavage.
The mark [9] stands for this setting: Chlorthalidone 20 mg/kg oral gavage.
The mark [10] stands for this setting: Chlorthalidone 50 mg/kg oral gavage.
[11] abbreviates: Furosemide 10 mg/kg oral gavage.
The mark [12] stands for this setting: Furosemide 20 mg/kg oral gavage.
Where [13] appears, read: Furosemide 50 mg/kg oral gavage.
[14] abbreviates: Metformin 300 mg/kg oral gavage.

Regarding `CC(=O)Nc1nnc(S(N)(=O)=O)s1` [Acetazolamide], in data set [1] (Day 0 or Day 13, DIO mice), the “difference in body weight between treated groups” value is “no difference in body weight”. Besides, in data set [2], the “effect on fasting plasma glucose levels of diet-induced obese mice” value is given as “reduced the fasting plasma glucose levels”. The entries for the “Delta FPG Treatment Day 13 vs Day −1” value in data set [2] (setting [5]), in data set [2] (setting [6]) and in data set [2] (setting [7]) were −9%, −14%^2 and −5%, respectively. Further, the “FPG Day 13” value in data set [2] (setting [5]) is 5.76 ± 0.43 mM; in data set [2] (setting [6]), 5.46 ± 0.32 mM; in data set [2] (setting [7]), 6.28 ± 0.31 mM. The “FPG Treatment vs Vehicle Day 13” value in data set [2] (setting [5]) was −9%; in data set [2] (setting [6]) it was −14%^1; in data set [2] (setting [7]) it was −1%. The entries for the “FPG Day −1” value in data set [2] (Acetazolamide 10 mg/kg group), in data set [2] (Acetazolamide 20 mg/kg group) and in data set [2] (Acetazolamide 50 mg/kg group) were 6.35 ± 0.5 mM, 6.32 ± 0.42 mM and 6.62 ± 0.38 mM, respectively. Also, the “effect on glucose tolerance of diet-induced obese mice” value in data set [3] was “increased the glucose tolerance”. Further, the “AUC Day 13” value came to 944 ± 26 mM·min in data set [3] (setting [5]), 902 ± 98 mM·min in data set [3] (setting [6]) and 1020 ± 144 mM·min in data set [3] (setting [7]). The “AUC Treatment vs Vehicle Day 13” value in data set [3] (setting [5]) was −22%^2; in data set [3] (setting [6]), −25%^3; in data set [3] (setting [7]) it was −15%^. Further, the “Delta AUC Treatment Day 13 vs Day −1” value in data set [3] (setting [5]) was −30%^1; in data set [3] (setting [6]) it was −33%^1; in data set [3] (setting [7]), −23%^2. For the same compound, the “AUC Day −1” value was 1342 ± 88 mM·min in data set [3] (Acetazolamide 10 mg/kg group), 1340 ± 68 mM·min in data set [3] (Acetazolamide 20 mg/kg group) and 1323 ± 109 mM·min in data set [3] (Acetazolamide 50 mg/kg group).
For `NS(=O)(=O)c1cc(C2(O)NC(=O)c3ccccc32)ccc1Cl` (stereo not drawn) [Chlorthalidone], the “effect on fasting plasma glucose levels of diet-induced obese mice” value in data set [2] is on record as “no beneficial effect”. Besides, the “FPG Day −1” value in data set [2] (Chlorthalidone 10 mg/kg group) came out at 7.8 ± 0.31 mM; in data set [2] (Chlorthalidone 20 mg/kg group) it was 7.58 ± 0.18 mM; in data set [2] (Chlorthalidone 50 mg/kg group) it was 7.94 ± 0.4 mM. Also, the “Delta FPG Treatment Day 13 vs Day −1” value in data set [2] (setting [8]) was 4%; in data set [2] (setting [9]), −7%; in data set [2] (setting [10]), −7%. In addition, the results for the “FPG Day 13” value in data set [2] (setting [8]), in data set [2] (setting [9]) and in data set [2] (setting [10]) were 8.08 ± 0.35 mM, 7.08 ± 0.31 mM and 7.4 ± 0.51 mM, respectively. Besides, the “FPG Treatment vs Vehicle Day 13” value in data set [2] (setting [8]) is listed as 5%; in data set [2] (setting [9]) it was −8%; in data set [2] (setting [10]), −4%. Besides, the “effect on glucose tolerance of diet-induced obese mice” value in data set [3] is “no beneficial effect”. Moreover, the figures for the “AUC Day −1” value in data set [3] (Chlorthalidone 10 mg/kg group), in data set [3] (Chlorthalidone 20 mg/kg group) and in data set [3] (Chlorthalidone 50 mg/kg group) were 1439 ± 137 mM·min, 1416 ± 110 mM·min and 1398 ± 87 mM·min, respectively. The “AUC Day 13” value came to 1660 ± 137 mM·min in data set [3] (setting [8]), 1263 ± 75 mM·min in data set [3] (setting [9]) and 1512 ± 46 mM·min in data set [3] (setting [10]). The “AUC Treatment vs Vehicle Day 13” value in data set [3] (setting [8]) is 29%; in data set [3] (setting [9]), −2%; in data set [3] (setting [10]), 17%. Moreover, the figures for the “Delta AUC Treatment Day 13 vs Day −1” value in data set [3] (setting [8]), in data set [3] (setting [9]) and in data set [3] (setting [10]) were 15%, −11% and 8%, respectively.
Turning to `NS(=O)(=O)c1cc(C(=O)O)c(NCc2ccco2)cc1Cl` [Furosemide], the “outcome of animals” value in data set [1] (100 mg/kg/d, DIO mice) is given as “had to be euthanized”. In addition, the body weight lost in data set [1] (100 mg/kg/d, in 5 days, DIO mice) is reported as about 6 g. The “body weight effect” value in data set [1] (DIO mice, consistent with a toxic effect) is “substantial body weight loss”. The results for the “FPG Day −1” value in data set [2] (Furosemide 10 mg/kg group), in data set [2] (Furosemide 20 mg/kg group) and in data set [2] (Furosemide 50 mg/kg group) were 7.28 ± 0.3 mM, 7.4 ± 0.4 mM and 6.78 ± 0.3 mM, respectively. The “Delta FPG Treatment Day 13 vs Day −1” value is 24% in data set [2] (setting [11]), 15% in data set [2] (setting [12]) and 20% in data set [2] (setting [13]). For the same compound, the “FPG Day 13” value in data set [2] (setting [11]) turned out to be 9.02 ± 0.4 mM; in data set [2] (setting [12]), 8.50 ± 0.4 mM; in data set [2] (setting [13]), 8.16 ± 0.6 mM. Besides, the “FPG Treatment vs Vehicle Day 13” value in data set [2] (setting [11]) is reported as 4%; in data set [2] (setting [12]), −2%; in data set [2] (setting [13]) it was −6%.
As to `CN(C)C(=N)N=C(N)N` [Metformin], in data set [2] (Metformin 300 mg/kg group), the “FPG Day −1” value amounted to 6.1 ± 0.6 mM. Besides, in data set [2] (setting [14]), the “Delta FPG Treatment Day 13 vs Day −1” value worked out at 11%, the “Delta FPG Treatment vs Vehicle Day 13” value was −11% and the “FPG Day 13” value was 6.8 ± 0.4 mM. In data set [4] (before dosing (Table 9-1)), the “FPG Day 0” value turned out to be 23.86 ± 1.4 mM. The “FPG Day 0” value in data set [4] (before dosing (Table 9-2)) came out at 23.86 ± 1.4 mM. Further, in data set [4] (setting [14]), the “Delta FPG Treatment Day 8 vs Day 0” value is listed as −20%^2, the “Delta FPG Treatment Day 18 vs Day 0” value is −16%^, the “FPG Day 8” value is recorded as 19.10 ± 2.1 mM and the “FPG Day 18” value turned out to be 20.01 ± 1.8 mM. In data set [4] (setting [14]), the “FPG Treatment vs Vehicle Day 8” value is reported as −18%^ and the “FPG Treatment vs Vehicle Day 18” value was −27%^4. Also, in data set [3] (Metformin 300 mg/kg group), the “AUC Day −1” value came to 1171 ± 81 mM·min. Besides, in data set [3] (setting [14]), the “AUC Day 13” value is 1307 ± 91 mM·min, the “AUC Day 13 Treat vs Veh” value is recorded as 8% and the “Delta AUC Day 13 vs Day −1” value turned out to be 12%.

The values above are taken from US10172837B2, “Insulin sensitisers and methods of treatment” (NAIA Metabolic, Inc., priority 2007, dated 2019).
